The target of this assay is MAPK14 (UniProt Q16539). The assay can be described thus: p38-alpha Inhibition. Particulars: for inhibition: concentration not given here.

By inhibition is commonly meant the relative decrease from the control value, in per cent. As usually defined, the IC50 is the point on the concentration scale where inhibition reaches its midpoint. A higher IC50 goes with a need for much substance.

Where only a bound is given, the exact number is not on record here.

MAPK14, sequence (Q16539 whole entry, looked up): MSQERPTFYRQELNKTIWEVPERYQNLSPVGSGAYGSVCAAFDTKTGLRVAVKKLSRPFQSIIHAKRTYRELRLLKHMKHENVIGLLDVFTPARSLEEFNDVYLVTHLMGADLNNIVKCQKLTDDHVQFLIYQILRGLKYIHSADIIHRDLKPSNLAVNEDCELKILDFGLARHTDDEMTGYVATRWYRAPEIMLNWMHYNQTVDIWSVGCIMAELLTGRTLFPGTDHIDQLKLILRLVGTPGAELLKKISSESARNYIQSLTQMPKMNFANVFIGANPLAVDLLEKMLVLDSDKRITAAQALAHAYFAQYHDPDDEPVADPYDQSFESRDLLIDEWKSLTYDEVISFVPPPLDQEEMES

Consider `CC(C)CNc1ccc2nc(-c3ccccc3F)nc(Nc3ccncc3)c2c1`, for which the inhibition was above 90%.
As for `Fc1ccccc1-c1nc(Nc2ccncc2)c2ccccc2n1`, the IC50 was determined as 800 nM.
Turning to `Clc1ccccc1-c1nc(Nc2ccncc2)c2ccccc2n1`, the IC50 was determined as 800 nM.
Compound `c1ccc(-c2nc(NCc3ccncc3)c3ccccc3n2)cc1` yielded an IC50 of 800 nM.
Compound `Nc1ccc2c(Nc3ccncc3)nc(-c3ccc(F)cc3)nc2c1` came in with an inhibition above 90%.
In the case of `c1ccc(-c2nc(Nc3ccncc3)c3ccccc3n2)cc1`, the IC50 worked out at 800 nM.
Regarding `O=[N+]([O-])c1ccc2nc(-c3ccccc3F)nc(Nc3ccncc3)c2c1`, the inhibition is above 90%.
`Nc1ccc2nc(-c3ccccc3F)nc(Nc3ccncc3)c2c1`: the IC50 stood at 800 nM and the inhibition is above 90%.
Compound `COc1cccc(Nc2nc(-c3ccccc3)nc3ccccc23)c1` showed an IC50 of 800 nM.
In turn, `Fc1ccc(-c2nc(Nc3ccncc3)c3ccccc3n2)cc1` displayed an IC50 of 800 nM.
The compound `COc1cccc(CNc2ccc3nc(-c4ccccc4F)nc(Nc4ccncc4)c3c2)c1` displayed an inhibition above 90%.
`Brc1ccccc1-c1nc(Nc2ccncc2)c2ccccc2n1` had an IC50 of 800 nM.
`COc1cccc(CNc2ccc3c(Nc4ccncc4)nc(-c4ccc(F)cc4)nc3c2)c1` registered an inhibition above 90%.
The compound `CSc1ccc(CNc2ccc3nc(-c4ccccc4F)nc(Nc4ccncc4)c3c2)cc1` came in with an inhibition above 90%.
On to `COc1cc2nc(-c3ccccc3Cl)nc(Nc3ccncc3)c2cc1OC`, for which the inhibition is above 90%.
Compound `COc1ccc(C(=O)Nc2ccc3nc(-c4ccccc4F)nc(Nc4ccncc4)c3c2)cc1` showed an inhibition above 90%.
As to `COc1ccc(CNc2ccc3nc(-c4ccccc4F)nc(Nc4ccncc4)c3c2)cc1`, the inhibition was above 90%.
As for `Cc1ccccc1-c1nc(Nc2ccncc2)c2ccccc2n1`, the IC50 was 800 nM.
Take `Nc1ccc2c(Nc3ccncc3)nc(-c3ccccc3F)nc2c1`: the inhibition is above 90%.

The record behind these values is the Kinase Knowledgebase extract (Sharma et al. 2016).
